Assays:
Format in all cases: in vivo, human
[1] = Clinical study safety: aspartate aminotransferase in subjects' blood; conditions: combined placebo + Compound 1 patients; for Mean Concentration of Aspartate Aminotransferase in Subjects' Blood: Baseline 19.7
Source text: (§1) The study was configured as a placebo-controlled, double-masked, randomized, Phase 2 study in approximately 100 subjects with moderately severe to severe NPDR (diabetic retinopathy severity score [DRSS] Level 47 or 53, see FIG. 1) or mild PDR (DRSS Level 61), evaluating safety and efficacy following administration of Compound 1 twice daily for 24 weeks. The study was configured for a 1:1 randomization (placebo: Compound 1). Randomization was stratified by level of disease severity (NPDR or PDR). Subjects with mild PDR were capped at 20% for each arm. Efficacy evaluations at 12 and/or 24 weeks included DRSS, center-involved diabetic macular edema (DME), moderate PDR or PDR-related adverse events (AEs), best-corrected visual acuity (BCVA), and central subfield thickness (CST). Further experimental procedures and results are described below.
(§2) At the Qualification/Baseline (Visit 2, Day 1): • The subject was randomized into the study. • Study medication was dispensed in accordance with the subjects randomized treatment arm. • Blood samples were drawn pre-dose for baseline levels and on Visit 9 (Week 24) for exploratory biomarker processing (i.e., cytokine and Ref-1 levels) to evaluate pharmacodynamic properties. • Subjects were instructed to administer their study medication (Compound 1 or placebo) each day, with 3 tablets every morning and 2 tablets every evening. Study medication was to be taken at approximately the same time each day and may be taken with or without food.
(§3) At the Second Treatment Visit (Visit 6, Week 12±2 Days), subjects were to return to the site for the following series of safety and efficacy assessments: drug accountability, concomitant medications, urine pregnancy test (only for women of childbearing potential), HR/BP/vital signs, BCVA (ETDRS), DRSS, CST (SD-OCT), blood draw for PK, blood chemistry, blood hematology, biomicroscopy, ophthalmoscopy, IOP, eGFR, and AEs. Following the completion of the assessments, used medication kits were collected for accountability (by counting the number of unused tablets), and new study medication kits dispensed.
(§4) At the Third Treatment Visit (Visit 9, Week 24±2 Days), subjects were to return to the site for the following series of safety and efficacy assessments: drug accountability, concomitant medications, urine pregnancy test (only for women of childbearing potential), physical examination, HR/BP/vital signs, BCVA (ETDRS), DRSS, CST (SD-OCT), blood chemistry, blood hematology, biomicroscopy, ophthalmoscopy, IOP, eGFR, AEs, and blood draw for exploratory biomarkers (ELISA, cytokine panel, comprehensive metabolic panel). Visit 9 (Week 24) was the end of the treatment period. Study medication was returned for accountability (by counting the number of unused tablets), and no further study medication dispensed.
(§5) Safety endpoints include: • Incidence and severity of systemic and ocular AEs, • Change from baseline in body system assessments, • Change from baseline in vital sign measurements, • Change from baseline in clinical laboratory assay results (blood chemistry, hematology), • Change from baseline in intraocular pressure (IOP), • Change from baseline in slit-lamp examination parameters, • Change from baseline in dilated funduscopic examination parameters, • Percent of subjects with a decrease of ≥10 letters in BCVA compared to baseline at Week 12 and Week 24, • Percent of subjects progressing to center-involved DME (eligible for rescue treatment at Week 12 and Week 24), • Percent of subjects with a worsening in DRSS of ≥2 steps in the study eye at Week 12 and Week 24, • Percent of subjects developing anterior segment neovascularization at Week 12 and Week 24, • Percent of subjects rescued (intravitreal anti-VEGF injection, laser PRP, focal/grid laser treatment, or surgery [vitrectomy]) at the discretion of the Investigator at Week 12 and Week 24, and • Change from baseline in estimated glomerular filtration rate (eGFR) at Week 12 and Week 24. […]

[2] = Clinical study safety: heart rate; conditions: combined placebo + Compound 1 patients; for Mean Heart Rate: Baseline 76.7
Source text: as §1, §2, §3, §4, §5

[3] = Clinical study safety: systolic blood pressure; conditions: combined placebo + Compound 1 patients; for Mean Systolic Blood Pressure: Baseline 136.9
Source text: as §1, §2, §3, §4, §5

[4] = Clinical study safety: diastolic blood pressure; conditions: combined placebo + Compound 1 patients; for Mean Diastolic Blood Pressure: Baseline 80.3
Source text: as §1, §2, §3, §4, §5

CCCCCCCCC/C(=C\C1=C(C)C(=O)C(OC)=C(OC)C1=O)C(=O)O [Compound 1, (E)-2-((4,5-dimethoxy-2-methyl-3,6-dioxocyclohexa-1,4-dien-1-yl)methylene)undecanoic acid]
Mean Concentration of Aspartate Aminotransferase in Subjects' Blood ([1]; Week 12, 53 subjects): 19.2 IU/L | Mean Concentration of Aspartate Aminotransferase in Subjects' Blood ([1]; Week 24, 24 subjects): 17.5 IU/L | change in mean concentration of aspartate aminotransferase relative to Baseline ([1]; week 12, 50 subjects): −0.5 IU/L | reduction in mean concentration of aspartate aminotransferase relative to Baseline ([1]; week 12, 50 subjects): 3% | change in mean concentration of aspartate aminotransferase relative to Baseline ([1]; week 24, 22 subjects): −1.8 IU/L | reduction in mean concentration of aspartate aminotransferase relative to Baseline ([1]; week 24, 22 subjects): 9% | Mean Heart Rate ([2]; Week 12, 62 subjects): 76.3 beats/min | Mean Heart Rate ([2]; Week 24, 27 subjects): 80.7 beats/min | change in mean heart rate relative to Baseline ([2]; week 12, 62 subjects): +0.9 beats/min | increase in mean heart rate relative to Baseline ([2]; week 12, 62 subjects): 1% | change in mean heart rate relative to Baseline ([2]; week 24, 27 subjects): +4.3 beats/min | increase in mean heart rate relative to Baseline ([2]; week 24, 27 subjects): 6% | Mean Systolic Blood Pressure ([3]; Week 12, 62 subjects): 132 mmHg | Mean Systolic Blood Pressure ([3]; Week 24, 27 subjects): 139.7 mmHg | change in mean systolic blood pressure relative to Baseline ([3]; week 12, 62 subjects): −4.7 mmHg | reduction in mean systolic blood pressure relative to Baseline ([3]; week 12, 62 subjects): 3% | change in mean systolic blood pressure relative to Baseline ([3]; week 24, 27 subjects): −0.7 mmHg | reduction in mean systolic blood pressure relative to Baseline ([3]; week 24, 27 subjects): 1% | Mean Diastolic Blood Pressure ([4]; Week 12, 62 subjects): 77.1 mmHg | Mean Diastolic Blood Pressure ([4]; Week 24, 27 subjects): 80.4 mmHg | change in mean diastolic blood pressure relative to Baseline ([4]; week 12, 62 subjects): −2.8 mmHg | reduction in mean diastolic blood pressure relative to Baseline ([4]; week 12, 62 subjects): 3% | change in mean diastolic blood pressure relative to Baseline ([4]; week 24, 27 subjects): +1 mmHg | increase in mean diastolic blood pressure relative to Baseline ([4]; week 24, 27 subjects): 1%

From patent US20260108483A1, “METHODS AND COMPOSITIONS FOR PREVENTING THE PROGRESSION OF DIABETIC RETINOPATHY AND RELATED CONDITIONS” (Opus Genetics, Inc., priority 2023, published 2026)
